Data as given in ChEMBL document CHEMBL1201862, “PubChem BioAssay data set” (2004).
Calls of active or inactive are those of the source.

Key:
[1] = molecular target: T1, Bcl-2-like protein 10 (Homo sapiens, UniProt Q9HD36); assay: Bcl-B/TR3 peptide binding disruption – biochemical, fluorescence polarization, FITC-TR3 peptide, selectivity assay for Bfl-1 inhibitor project, primary screen (AID 748);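 also: fluorescence polarization from a fluorescein-labelled TR3 peptide binding purified Bcl-B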
T1 sequence (Q9HD36 whole entry): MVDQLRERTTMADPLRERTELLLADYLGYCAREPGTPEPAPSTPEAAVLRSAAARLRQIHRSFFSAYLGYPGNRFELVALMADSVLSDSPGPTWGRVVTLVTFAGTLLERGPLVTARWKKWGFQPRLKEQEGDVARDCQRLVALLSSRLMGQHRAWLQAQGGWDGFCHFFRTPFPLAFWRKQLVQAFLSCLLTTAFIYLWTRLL

[2] = molecular target: Eukaryotic translation initiation factor 4H (Homo sapiens, UniProt Q15056); assay: eIF4H binding inhibition – biochemical, uHTS, fluorescence polarization, translation initiation inhibitor project, primary screen (AID 2012)
[3] = molecular target: Polyadenylate-binding protein 1 (Homo sapiens, UniProt P11940); assay: blockers of PABP interaction with poly(A) – biochemical, fluorescence polarization, […] (AID 2014)
[4] = system: Streptococcus sp. 'group A'; assay: Streptococcus pyogenes SK(-)GAS viability under kanamycin – luminescence, BacTiterGlo, confirmation, counter-screen for streptokinase expression inhibitor project, dose response (AID 1900); format: functional, organism-based
[5] = molecular target: T2, Streptokinase A (Streptococcus pyogenes serotype M1, UniProt P10520); assay: viability-normalized secreted streptokinase activity reduction – plasminogen activation absorbance, OD405, dose response (AID 1914); format: functional, Streptococcus pyogenes M1 GAS;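 also: secreted streptokinase activity via plasminogen activation per viability signal from cell pellet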
T2 sequence (P10520 whole entry): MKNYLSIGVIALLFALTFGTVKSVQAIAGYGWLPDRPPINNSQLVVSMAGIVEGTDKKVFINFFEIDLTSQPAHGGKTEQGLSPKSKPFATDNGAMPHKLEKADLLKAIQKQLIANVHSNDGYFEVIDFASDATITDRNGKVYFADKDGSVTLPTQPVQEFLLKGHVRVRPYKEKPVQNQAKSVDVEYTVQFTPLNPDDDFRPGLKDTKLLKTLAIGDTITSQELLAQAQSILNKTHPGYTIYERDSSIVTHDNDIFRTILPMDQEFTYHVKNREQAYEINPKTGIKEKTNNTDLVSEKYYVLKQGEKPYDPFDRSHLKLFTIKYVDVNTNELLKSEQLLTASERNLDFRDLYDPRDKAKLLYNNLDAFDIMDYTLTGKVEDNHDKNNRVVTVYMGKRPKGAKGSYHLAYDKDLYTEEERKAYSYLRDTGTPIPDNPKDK

[6] = system: Streptococcus; assay: GAS UMAA2166 growth inhibition – luminescence, BacTiterGlo, counter-screen for streptokinase expression inhibitor project, dose response (AID 1915); format: functional, organism-based;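 also: potency for reduction of bacterial viability or growth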
[7] = molecular target: Beta-galactosidase (Escherichia coli, UniProt Q8VNN2); assay: detection-enzyme interference by beta-gal modulators – biochemical, E. coli enzyme, set 3, artefact control for CCR6 antagonist project, dose response (AID 504712); format: functional
[8] = THP-1 cell cytotoxicity, dose response, cytotoxicity control for non-replicating M. tuberculosis project (AID 489025); format: functional
[9] = molecular target: T3, Short transient receptor potential channel 4 (Mus musculus, UniProt Q9QUQ5); assay: block of DAMGO-driven TRPC4 calcium entry – cell-based, HEK293 TRPC4/mu-opioid, Fluo-4 calcium, dose response (AID 434942); format: functional;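 also: potency of inhibitors blocking the TRPC4 calcium response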
T3 sequence (Q9QUQ5 whole entry): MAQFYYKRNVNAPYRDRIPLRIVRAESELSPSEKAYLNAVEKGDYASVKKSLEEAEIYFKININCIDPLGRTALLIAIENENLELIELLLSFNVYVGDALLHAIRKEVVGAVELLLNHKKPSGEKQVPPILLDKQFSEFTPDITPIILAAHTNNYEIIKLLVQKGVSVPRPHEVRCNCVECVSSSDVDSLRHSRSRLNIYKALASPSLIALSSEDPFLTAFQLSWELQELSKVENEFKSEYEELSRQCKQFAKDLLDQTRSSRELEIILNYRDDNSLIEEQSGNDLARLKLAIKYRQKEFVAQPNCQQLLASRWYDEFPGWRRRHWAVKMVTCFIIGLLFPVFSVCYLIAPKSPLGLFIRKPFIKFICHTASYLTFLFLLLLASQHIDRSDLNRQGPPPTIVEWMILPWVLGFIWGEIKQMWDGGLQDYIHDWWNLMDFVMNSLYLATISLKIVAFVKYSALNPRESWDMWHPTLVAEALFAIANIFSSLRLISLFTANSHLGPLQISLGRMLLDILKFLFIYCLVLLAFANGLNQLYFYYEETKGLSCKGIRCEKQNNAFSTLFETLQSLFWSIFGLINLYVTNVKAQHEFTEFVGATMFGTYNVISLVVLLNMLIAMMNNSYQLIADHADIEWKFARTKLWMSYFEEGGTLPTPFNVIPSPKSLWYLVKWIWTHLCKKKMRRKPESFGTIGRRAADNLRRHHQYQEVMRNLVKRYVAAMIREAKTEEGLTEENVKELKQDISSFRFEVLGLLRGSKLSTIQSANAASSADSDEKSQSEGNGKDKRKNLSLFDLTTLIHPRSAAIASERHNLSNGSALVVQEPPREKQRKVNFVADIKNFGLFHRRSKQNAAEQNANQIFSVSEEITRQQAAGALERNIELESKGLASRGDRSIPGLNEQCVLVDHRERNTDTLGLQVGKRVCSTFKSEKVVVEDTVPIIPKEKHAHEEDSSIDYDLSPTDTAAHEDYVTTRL

[10] = HepG2 cell cytotoxicity, dose response, cytotoxicity control for non-replicating M. tuberculosis project (AID 489018); format: functional; settings: Mycobacterium tuberculosis
[11] = Vero E6 cell cytotoxicity, dose response, cytotoxicity control for non-replicating M. tuberculosis project, secondary assay (AID 492998); format: functional, VeroE6; settings: Vero C1008
[12] = cells; format: functional
[13] = system: HeLa; assay: viability loss in HeLa cells – cell-based, 24 h, cherry-picked samples, cytotoxicity control, dose response (AID 504726); format: functional; settings: Homo sapiens;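 also: potency for cytotoxicity as loss of luminescence signal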
[14] = NIH-3T3 fibroblast cytotoxicity, dose response, cytotoxicity control, cell-based, fluorescence, Alamar Blue, secondary assay (AID 2327); format: functional;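 also: NIH-3T3 mouse fibroblasts cultured with fluconazole at 8 µg/mL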
[15] = Luminescence Cell-Based Dose Confirmation HTS to Identify Activators of 5'UTR Stem-Loop Driven Alpha-Synuclein mRNA Translation in H4 Neuroglioblastoma Cells. [Related pubchem assays: 1829 (Project Summary), 1814 (Primary HTS)]; format: functional
[16] = Luminescence Cell-Based Dose Response HTS to Identify Activators of Luciferase Translation or Activity in H4 […] Cells. [Related pubchem assays: 1829 (Project Summary), 1814 (Primary HTS)]; format: functional
[17] = system: H4; assay: Luminescence Cell-Based Dose Response HTS to Identify Activators of 5'UTR Stem-Loop Driven Prion Protein mRNA Translation in H4 Neuroglioblastoma Cells. [Related pubchem assays: 1829 (Project Summary), 1814 (Primary HTS)]; format: functional; settings: Homo sapiens
[18] = molecular target: T3, Short transient receptor potential channel 4; assay: calcium entry via TRPC4 opening agents – cell-based, HEK293 TRPC4/mu-opioid, Fluo-4 calcium, dose response (AID 434937); format: functional
[19] = molecular target: Cytochrome P450 2C19 (Homo sapiens, UniProt P33261); assay: Cytochrome panel assay with activity outcomes. Panel member name: p450-cyp2c19 Compounds with AC50 equal or less than 10 uM are considered active; format: functional; settings: read-out: AC50
[20] = molecular target: Cytochrome P450 3A4 (Homo sapiens, UniProt P08684);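 also: CYP3A4 tested as one member of a cytochrome P450 panel screen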
[21] = molecular target: Cytochrome P450 2C9 (Homo sapiens, UniProt P11712)
[22] = viability of uninfected HEp-2 cells – cell-based, HTS, cytotoxicity control for RSV inhibitor project, dose response (AID 2410); format: functional; settings: human respiratory syncytial virus
[23] = molecular target: DNA dC->dU-editing enzyme APOBEC-3G (Homo sapiens, UniProt Q9HC16); assay: Dose Response confirmation of small molecule APOBEC3G DNA Deaminase Inhibitors via a fluorescence-based single-stranded DNA deaminase assay. [Related pubchem assays (depositor defined):AID493012, AID493028]; format: functional
[24] = cells
[25] = molecular target: CAAX prenyl protease 2 (Saccharomyces cerevisiae S288c, UniProt Q03530); format: biochemical
[26] = molecular target: Tumor necrosis factor (Homo sapiens, UniProt P01375); assay: analog potency on TNFa NF-kB signaling – cell-based, revised, SAR follow-up (AID 2337); format: functional
[27] = molecular target: T4, Nucleotide-binding oligomerization domain-containing protein 1 (Homo sapiens, UniProt Q9Y239); assay: blockers of NOD1 pathway activity – revised, SAR follow-up (AID 2333); format: functional
T4 sequence (Q9Y239 whole entry): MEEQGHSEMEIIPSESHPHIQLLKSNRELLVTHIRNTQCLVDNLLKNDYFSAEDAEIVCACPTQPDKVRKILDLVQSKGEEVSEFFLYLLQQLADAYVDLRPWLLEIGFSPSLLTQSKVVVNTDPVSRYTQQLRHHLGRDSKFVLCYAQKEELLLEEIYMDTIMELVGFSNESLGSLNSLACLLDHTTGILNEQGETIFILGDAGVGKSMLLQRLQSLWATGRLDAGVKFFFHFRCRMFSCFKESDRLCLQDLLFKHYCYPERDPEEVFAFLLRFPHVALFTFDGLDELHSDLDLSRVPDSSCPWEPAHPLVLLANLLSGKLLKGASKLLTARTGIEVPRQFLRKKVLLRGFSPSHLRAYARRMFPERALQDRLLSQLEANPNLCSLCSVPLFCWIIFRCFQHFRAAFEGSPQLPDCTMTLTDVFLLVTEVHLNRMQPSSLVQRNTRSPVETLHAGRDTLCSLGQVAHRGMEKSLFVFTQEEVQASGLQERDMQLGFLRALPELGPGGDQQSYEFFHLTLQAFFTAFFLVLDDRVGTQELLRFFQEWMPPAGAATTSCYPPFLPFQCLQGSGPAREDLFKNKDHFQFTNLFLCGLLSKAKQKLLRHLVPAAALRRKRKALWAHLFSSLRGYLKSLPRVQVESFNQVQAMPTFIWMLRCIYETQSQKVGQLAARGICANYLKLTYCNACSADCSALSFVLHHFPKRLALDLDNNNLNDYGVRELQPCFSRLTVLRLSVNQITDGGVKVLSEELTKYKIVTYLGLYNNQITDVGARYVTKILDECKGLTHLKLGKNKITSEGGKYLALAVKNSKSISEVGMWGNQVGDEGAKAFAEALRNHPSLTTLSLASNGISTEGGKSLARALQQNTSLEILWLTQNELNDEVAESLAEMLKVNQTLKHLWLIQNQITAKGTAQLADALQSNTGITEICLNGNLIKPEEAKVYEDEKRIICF

[28] = molecular target: Nucleotide-binding oligomerization domain-containing protein 2 (Homo sapiens, UniProt Q9HC29); assay: PubChem AID 2334; format: functional
[29] = system: HEK293; assay: cells; settings: Homo sapiens;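 also: cells exposed to compound for 14 hours overnight before viability readout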

Polyadenylate-binding protein 1, sequence (P11940 whole entry): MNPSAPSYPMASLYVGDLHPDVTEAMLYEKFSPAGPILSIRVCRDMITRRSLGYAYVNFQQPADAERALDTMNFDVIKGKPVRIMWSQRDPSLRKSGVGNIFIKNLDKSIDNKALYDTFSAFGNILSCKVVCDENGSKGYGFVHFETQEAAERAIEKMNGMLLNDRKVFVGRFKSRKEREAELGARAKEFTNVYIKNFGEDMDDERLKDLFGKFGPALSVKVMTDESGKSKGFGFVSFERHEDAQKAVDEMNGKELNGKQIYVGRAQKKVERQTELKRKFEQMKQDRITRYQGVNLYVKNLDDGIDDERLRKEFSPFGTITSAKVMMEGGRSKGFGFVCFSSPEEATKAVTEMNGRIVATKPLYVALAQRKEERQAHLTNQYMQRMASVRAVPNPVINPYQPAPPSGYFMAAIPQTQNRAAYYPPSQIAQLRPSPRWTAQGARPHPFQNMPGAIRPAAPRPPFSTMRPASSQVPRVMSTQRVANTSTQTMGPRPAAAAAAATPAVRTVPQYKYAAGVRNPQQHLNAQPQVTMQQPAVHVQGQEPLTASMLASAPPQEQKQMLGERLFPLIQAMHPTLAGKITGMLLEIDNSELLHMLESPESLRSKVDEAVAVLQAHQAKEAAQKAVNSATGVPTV
Nucleotide-binding oligomerization domain-containing protein 2, sequence (Q9HC29 whole entry, the tested form may be a part): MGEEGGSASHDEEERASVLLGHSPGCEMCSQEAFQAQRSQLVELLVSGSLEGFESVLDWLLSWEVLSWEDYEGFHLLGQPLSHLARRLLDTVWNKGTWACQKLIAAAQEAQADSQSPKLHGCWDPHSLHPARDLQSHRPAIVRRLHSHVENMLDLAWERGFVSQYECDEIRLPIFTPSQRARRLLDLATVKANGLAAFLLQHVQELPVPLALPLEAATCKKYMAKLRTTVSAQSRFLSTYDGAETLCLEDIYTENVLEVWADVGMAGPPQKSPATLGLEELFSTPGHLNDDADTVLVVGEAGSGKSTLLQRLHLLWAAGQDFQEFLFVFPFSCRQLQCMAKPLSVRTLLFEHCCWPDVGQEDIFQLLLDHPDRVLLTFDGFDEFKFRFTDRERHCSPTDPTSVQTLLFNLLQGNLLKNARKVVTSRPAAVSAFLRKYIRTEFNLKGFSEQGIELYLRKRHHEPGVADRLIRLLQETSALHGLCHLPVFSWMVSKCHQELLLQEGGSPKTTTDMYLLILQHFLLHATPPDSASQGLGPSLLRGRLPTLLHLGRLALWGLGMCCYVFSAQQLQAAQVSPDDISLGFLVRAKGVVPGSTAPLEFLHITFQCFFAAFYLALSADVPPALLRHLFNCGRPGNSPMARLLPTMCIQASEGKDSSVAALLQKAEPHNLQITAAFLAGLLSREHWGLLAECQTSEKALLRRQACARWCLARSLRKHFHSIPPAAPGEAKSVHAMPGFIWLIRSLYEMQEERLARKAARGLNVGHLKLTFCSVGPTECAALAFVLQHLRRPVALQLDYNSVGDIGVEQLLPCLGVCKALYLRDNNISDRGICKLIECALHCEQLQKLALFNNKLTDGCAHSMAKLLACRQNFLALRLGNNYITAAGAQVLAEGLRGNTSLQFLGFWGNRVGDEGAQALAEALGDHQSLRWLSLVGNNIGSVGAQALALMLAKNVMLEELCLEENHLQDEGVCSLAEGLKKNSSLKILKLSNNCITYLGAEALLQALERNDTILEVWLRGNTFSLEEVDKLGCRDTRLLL
Tumor necrosis factor, sequence (P01375 whole entry, the tested form may be a part): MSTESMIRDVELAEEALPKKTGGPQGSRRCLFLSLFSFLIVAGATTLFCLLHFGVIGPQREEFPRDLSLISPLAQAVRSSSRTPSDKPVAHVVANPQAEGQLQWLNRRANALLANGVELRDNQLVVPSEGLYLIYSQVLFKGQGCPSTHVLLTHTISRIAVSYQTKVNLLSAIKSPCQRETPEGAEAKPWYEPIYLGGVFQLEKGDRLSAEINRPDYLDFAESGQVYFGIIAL
Cytochrome P450 2C9, sequence (P11712 whole entry): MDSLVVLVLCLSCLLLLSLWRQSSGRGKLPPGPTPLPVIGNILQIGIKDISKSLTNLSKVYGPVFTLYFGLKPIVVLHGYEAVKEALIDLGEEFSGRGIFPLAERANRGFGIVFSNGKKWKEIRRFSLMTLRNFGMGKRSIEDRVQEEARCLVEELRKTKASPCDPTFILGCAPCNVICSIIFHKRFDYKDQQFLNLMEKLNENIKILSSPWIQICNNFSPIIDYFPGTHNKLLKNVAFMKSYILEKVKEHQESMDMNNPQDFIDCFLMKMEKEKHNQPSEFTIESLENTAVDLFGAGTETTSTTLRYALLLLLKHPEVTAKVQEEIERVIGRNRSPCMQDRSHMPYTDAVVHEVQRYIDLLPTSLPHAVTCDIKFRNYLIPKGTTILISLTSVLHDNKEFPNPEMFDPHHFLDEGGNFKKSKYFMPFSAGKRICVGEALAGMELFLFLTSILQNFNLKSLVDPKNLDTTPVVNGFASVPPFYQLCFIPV
Cytochrome P450 2C19, sequence (P33261 whole entry): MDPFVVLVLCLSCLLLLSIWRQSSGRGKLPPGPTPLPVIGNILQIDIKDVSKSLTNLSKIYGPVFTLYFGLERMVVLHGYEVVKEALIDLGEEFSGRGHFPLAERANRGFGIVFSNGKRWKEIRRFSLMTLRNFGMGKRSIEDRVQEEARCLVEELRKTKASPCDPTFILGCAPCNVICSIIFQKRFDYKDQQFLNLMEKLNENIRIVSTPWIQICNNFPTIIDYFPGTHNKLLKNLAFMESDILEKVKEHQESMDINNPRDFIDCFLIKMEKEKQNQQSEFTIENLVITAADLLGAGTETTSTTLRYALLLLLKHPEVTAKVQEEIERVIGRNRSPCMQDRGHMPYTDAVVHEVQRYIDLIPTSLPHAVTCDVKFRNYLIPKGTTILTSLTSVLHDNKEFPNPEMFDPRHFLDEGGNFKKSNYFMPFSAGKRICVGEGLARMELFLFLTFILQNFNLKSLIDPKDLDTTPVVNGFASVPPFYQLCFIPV
Cytochrome P450 3A4, sequence (P08684 whole entry): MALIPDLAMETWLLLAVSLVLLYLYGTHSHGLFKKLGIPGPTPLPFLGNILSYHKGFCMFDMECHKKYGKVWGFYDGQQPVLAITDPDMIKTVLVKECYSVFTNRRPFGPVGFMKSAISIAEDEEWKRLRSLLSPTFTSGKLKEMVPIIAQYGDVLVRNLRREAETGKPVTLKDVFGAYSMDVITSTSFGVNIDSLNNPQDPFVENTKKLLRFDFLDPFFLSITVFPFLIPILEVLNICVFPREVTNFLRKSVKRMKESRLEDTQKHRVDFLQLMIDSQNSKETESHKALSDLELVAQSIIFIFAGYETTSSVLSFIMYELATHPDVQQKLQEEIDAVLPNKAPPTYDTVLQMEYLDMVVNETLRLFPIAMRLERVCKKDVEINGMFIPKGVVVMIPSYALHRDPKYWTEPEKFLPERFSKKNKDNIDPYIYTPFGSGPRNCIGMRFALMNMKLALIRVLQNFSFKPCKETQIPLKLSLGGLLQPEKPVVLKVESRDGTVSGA
CAAX prenyl protease 2, sequence (Q03530 whole entry): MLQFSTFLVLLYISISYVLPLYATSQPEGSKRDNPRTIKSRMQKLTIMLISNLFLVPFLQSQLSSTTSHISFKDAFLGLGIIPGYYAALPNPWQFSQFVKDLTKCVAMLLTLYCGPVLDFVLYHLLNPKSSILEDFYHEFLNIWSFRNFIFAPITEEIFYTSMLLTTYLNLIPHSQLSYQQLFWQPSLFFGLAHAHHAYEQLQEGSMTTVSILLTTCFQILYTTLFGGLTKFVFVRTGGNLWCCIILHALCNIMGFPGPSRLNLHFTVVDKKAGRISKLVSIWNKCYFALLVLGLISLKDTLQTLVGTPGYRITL
DNA dC->dU-editing enzyme APOBEC-3G, sequence (Q9HC16 whole entry): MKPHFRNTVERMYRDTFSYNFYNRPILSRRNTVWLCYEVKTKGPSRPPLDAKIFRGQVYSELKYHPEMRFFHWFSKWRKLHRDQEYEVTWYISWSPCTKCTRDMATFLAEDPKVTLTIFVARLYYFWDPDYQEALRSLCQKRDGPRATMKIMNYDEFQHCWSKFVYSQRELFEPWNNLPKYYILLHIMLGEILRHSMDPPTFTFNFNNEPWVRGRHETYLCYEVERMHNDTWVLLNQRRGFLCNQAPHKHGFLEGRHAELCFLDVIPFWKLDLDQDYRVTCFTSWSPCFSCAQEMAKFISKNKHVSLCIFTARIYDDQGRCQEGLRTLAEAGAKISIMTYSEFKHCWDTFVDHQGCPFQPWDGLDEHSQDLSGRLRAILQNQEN

SMILES: O=S(=O)(c1ccccc1)N(CC(O)CN1CCCCC1)c1ccccc1 (stereo not given)
- IC50 [1]: > 100 µM (inactive)

SMILES: COC(=O)c1[nH]c2ccc(C)cc2c1NC(=O)CCN1CCN(Cc2ccc3c(c2)OCO3)CC1
- IC50 [1]: > 100 µM (inactive)

SMILES: C[n+]1ccccc1/C=C/c1ccc(F)c(F)c1
- IC50 [2]: 97.9 µM (active)
- IC50 [3]: 4.32 µM (active)

SMILES: CCCCCCC(=O)NN/C=C1\C(=O)NC(=S)N(C(C)CC)C1=O (stereo not given)
- EC50 [4]: 5.17 µM (active)
- EC50 [5]: > 150 µM (not active)
- EC50 [6]: 9.29 µM (active)
- IC50 [7]: > 66.6 µM (inactive)

SMILES: CN1CCN(c2ccc(NC(=O)c3ccc(-c4ccc(Cl)cc4)o3)cc2)CC1
- CC50 [8]: 17.6 µM (active)
- EC50 [9]: 0.0667 µM (active)
- CC50 [10]: 8.12 µM (active)
- CC50 [11]: 17.2 µM (active)
- IC50 [12]: 3.04 µM (active)

SMILES: Oc1nc(S)nc2c1C(c1ccc(Br)cc1)c1c(O)nc(S)nc1O2
- AC50 [13]: > 350 µM (inactive)

SMILES: Cc1cc(C)n(-c2nc(SCCN(C)C)c3c4c(sc3n2)CCCC4)n1
- EC50 [14]: 56 µM (active)
- EC50 [15]: > 120 µM (not active)
- EC50 [16]: > 120 µM (not active)
- EC50 [17]: > 120 µM (not active)
- CC50 [8]: 13.5 µM (active)
- CC50 [10]: 19.4 µM (active)
- CC50 [11]: 6.93 µM (active)
- EC50 [18]: 1.88 µM (active)
- IC50 [12]: 9.58 µM (active)
- AC50 [19]: 31.6 µM (inconclusive)
- AC50 [20]: 17.8 µM (inconclusive)
- AC50 [21]: 15.8 µM (inconclusive)

SMILES: CC1=C(C(=O)OC(C)C)C(c2ccco2)NC(=O)N1 (stereo not given)
- IC50 [2]: 34.7 µM (active)
- IC50 [3]: 42.8 µM (active)

SMILES: c1ccc(-c2nn3c(Cn4cnc5ccccc54)nnc3s2)cc1
- CC50 [22]: 42.6 µM (active)
- IC50 [23]: > 100 µM (inactive)
- IC50 [24]: 5.46 µM (active)

SMILES: COc1ccc(-c2ccc3oc(-c4ccc(OC)cc4)c(-c4ccc(OC)cc4)c3c2)cc1
- AC50 [25]: 18 µM (active)

SMILES: O=C(Nc1nc2ccccc2n1Cc1ccc(Cl)cc1)c1ccccc1
- IC50 [26]: > 20 µM (inactive)
- IC50 [27]: > 20 µM (inactive)
- IC50 [28]: > 20 µM (inactive)
- IC50 [29]: > 20 µM (inactive)

SMILES: Cc1ccc2cccc(N=Cc3c(C)[nH]n(-c4ccccc4)c3=O)c2n1
- IC50 [26]: > 20 µM (inactive)
- IC50 [27]: > 20 µM (inactive)
- IC50 [28]: > 20 µM (inactive)
- IC50 [29]: > 20 µM (inactive)
